Laboratory results published in patent US20120207861A1, “BIOCIDAL COMPOSITION AND METHOD FOR TREATING RECIRCULATING WATER SYSTEMS” (priority 2006, published 2012).

Experiments:
[1] = tested on: biofilm of fungal isolates (Paecilomyces lilacinus, Trichoderma spp.) and bacterial isolates (Alcaligenes species, Sphingomonas species); test: Remediation: 96-well plate mixed biofilm treated with biocides, resazurin readout; type: cell-based; conditions: for Efficacy level (Effective Concentration with 6 ppm of PHMB): with 6 ppm PHMB, biofilm treated 24 hours at 28° C., resazurin; for Result (effect of adjuvant on DBNPA efficacy against biofilm): adjuvant 50 ppm with DBNPA in presence of PHMB
Experimental: Fungal isolates of common fungi found in swimming pools such as Paecilomyces lilacinus and Trichoderma spp. and bacterial isolates also common to swimming pools such as, i.e. Alcaligenes species and Sphingomonas species were used to construct a biofilm, which was treated with biocides, using the following method: […] An aliquot of the spore suspension was added to each well of a 96-well plate, except column 12. The plates were incubated for 18 hours at 28° C. Also, a mixture of bacterial suspension was prepared at a concentration of 2.34×10^5/ml in 20% […] broth. An aliquot of bacterial suspension was added to each well of the 96-well plate, where fungal spores were placed. The plates were incubated for 24 hours at 28° C. […] An aliquot of the chemical solution was added to each well of column 1 and 2. The solution was mixed in each well of column 2 and an aliquot of solution was transferred from each well of column 2 to each well of column 3. The dilution was repeated to column 11 and the solution from each well of column 11 after dilution was discarded. The culture broth was removed from each well of the incubated plate. An aliquot of 0.8% sodium chloride solution was added to each well, except column 12. The sodium chloride solution was then removed from each well. The prepared chemical solutions were transferred to the corresponding wells of the biofilm plate. The plate was incubated for 24 hours at 28° C. The chemical solution was removed from the plate and an aliquot of resazurin solution was added to each well including column 12. The plate was kept on the lab bench for 24-48 hours. The plate was read at 540 nm and 620 nm. The difference in absorbance between the two wavelengths indicated the performance of the biocides.

[2] = tested on: eight species of bacteria and four species of fungi typically found in swimming pool water; test: Prevention in test pools: overall mold and bacterial control
Experimental: The test pools were run in the preventative mode to evaluate the effect of the sanitizers on the build up of bacteria and fungi in the system. The pool pumps were operated for a minimum of 8 hours per day. Each pool was challenged twice per week with eight species of bacteria and four species of fungi typically found in swimming pool water. These microorganisms include species of the fungi Paecilomyces and Trichoderma, and species of the bacteria Alcaligenes, Chryseobacterium and Sphingomonas. Each inoculation represents a total addition of 0.8×106 microorganisms per test pool. Synthetic bather load is added to the system on a weekly basis, as a nutrient source for the microorganisms present in the system. The bather load consists of carbon, nitrogen and macro/micro nutrient sources such as urea, albumin, creatinine, lactic acid, uric acid, glucuronic acid, sodium chloride, sodium sulfate, ammonium chloride, sodium bicarbonate, potassium phosphate potassium sulfate. The total number of viable bacteria and fungi present in each test pool was determined weekly, by conducting agar plate counts. Water samples are removed from each test pool, and using this sample a dilution series (in 10-1 steps, down to a 10-5 of the original sample) is prepared. […]

[3] = tested on: eight species of bacteria and four species of fungi typically found in swimming pool water; test: Prevention secondary screen: laboratory scale model of a swimming pool, water clarity and hydrogen peroxide loss; type: cell-based; conditions: for Number of Days of Clarity below 1.0 NTU / Number of Days of Clarity below 1.0 NTU with no Peroxide in System: Table 4
[4] = tested on: bacteria Alcaligenes, Chryseobacterium and Sphingomonas; test: Prevention secondary screen: bacterial plate counts; type: cell-based; conditions: Table 4
[5] = tested on: Bacteria (Alcaligenes, Chryseobacterium and Sphingomonas); test: Prevention in test pools: water bacteria counts
Experimental: (§1) The test pools were run in the preventative mode to evaluate the effect of the sanitizers on the build up of bacteria and fungi in the system. The pool pumps were operated for a minimum of 8 hours per day. Each pool was challenged twice per week with eight species of bacteria and four species of fungi typically found in swimming pool water. These microorganisms include species of the fungi Paecilomyces and Trichoderma, and species of the bacteria Alcaligenes, Chryseobacterium and Sphingomonas. Each inoculation represents a total addition of 0.8×106 microorganisms per test pool. Synthetic bather load is added to the system on a weekly basis, as a nutrient source for the microorganisms present in the system. The bather load consists of carbon, nitrogen and macro/micro nutrient sources such as urea, albumin, creatinine, lactic acid, uric acid, glucuronic acid, sodium chloride, sodium sulfate, ammonium chloride, sodium bicarbonate, potassium phosphate potassium sulfate. The total number of viable bacteria and fungi present in each test pool was determined weekly, by conducting agar plate counts. Water samples are removed from each test pool, and using this sample a dilution series (in 10-1 steps, down to a 10-5 of the original sample) is prepared. Subsequently, an aliquot of each dilution is spread onto dry Cystine Lactose Electrolyte Deficient agar plates (for enumeration of bacteria) and dry Sabaroud-Dextrose agar plates (for enumeration of fungi). […] There were no chemical doses administered on Saturday or Sunday.

[6] = tested on: viable bacteria in pool water and sand with established biofilm; test: Remedial secondary screen: failed model pool, reduction of viable microorganisms in water and sand; type: cell-based; conditions: FIGS. 1 and 2
Experimental: The secondary screen methodology is based upon a laboratory scale model of a swimming pool. A volume (800 ml) of synthetic swimming pool water (Calcium chloride dihydrate and Sodium hydrogen carbonate solution) is pumped through a body of swimming pool filter sand, by means of a peristaltic pump. The water temperature of each system is maintained in the range of 80-90° F. The systems are allowed to fail resulting in turbid water and heavy bacterial and fungal growth. This is to simulate a swimming pool that has been improperly maintained and has a problem. The purpose of this test is to evaluate the ability of a single biocide or combination of biocides with adjuvants for controlling the organisms present in both the water and the filter sand. Turbidity is not a key measure because the suspended solids are too fine for filtration so they would need to be removed with a separate chemical treatment such as flocculation. To the water, chemicals may be added as required. […] Hydrogen peroxide is added at concentrations of 0-27.5 ppm at the start of the experimentation. The secondary model system is challenged on a daily basis with eight species of bacteria and four species of fungi typically found in swimming pool water. These microorganisms include species of the fungi Paecilomyces and Trichoderma, and species of the bacteria Alcaligenes, Chryseobacterium and Sphingomonas. Each inoculation represents a total addition of 0.8×10^6 microorganisms per model apparatus. A volume (5 ml) of synthetic bather load is added to the system on a daily basis, as a nutrient source for the microorganisms present in the system. The bather load consists of carbon, nitrogen and macro/micro nutrient sources such as urea, albumin, creatinine, lactic acid, uric acid, glucuronic acid, sodium chloride, sodium sulfate, ammonium chloride, sodium bicarbonate, potassium phosphate potassium sulfate. […] The biocidal treatments are added and reduction of viable microorganisms is measured. The biocidal treatments may be added a second time.

[7] = tested on: Mold (fungi Paecilomyces and Trichoderma); test: Prevention in test pools: water mold counts
Experimental: as §1

[8] = tested on: fungi Paecilomyces and Trichoderma; test: Prevention secondary screen: fungal plate counts; type: cell-based; conditions: Table 4
[9] = DBNPA 1 ppm Daily Additions, in the absence of PHMB
[10] = Pool 2, 1.0 ppm/day DBNPA, Low Baquacil (10-20 ppm)
[11] = Pool 2, 1.0 ppm/day DBNPA, Recommended Baquacil (30-50 ppm)
[12] = Pool 6, 0.5 ppm/day DBNPA, Low Baquacil (10-20 ppm)
[13] = Pool 6, Tablet 0.3 ppm/day DBNPA, Recommended Baquacil (30-50 ppm), with hydrogen peroxide doses
[14] = Pool 7, 2.0 ppm/day DBNPA, Low Baquacil (10-20 ppm)
[15] = Pool 7, 2.0 ppm/day DBNPA, Recommended Baquacil (30-50 ppm)

## POE (2) stearyl ether [Brij ® 72]
[1]
  Efficacy level (Effective Concentration with 6 ppm of PHMB): >100 ppm

## CCCCCCCCCCCCN [Armeen 12D, Dodecyl amines]
[1]
  Efficacy level (Effective Concentration with 6 ppm of PHMB): >100 ppm

## CC(=O)C1C(=O)C=C(C)OC1=O (stereo not drawn) [Geogard 111A, Dehydroxyacetic acid (dehydroacetic acid)]
[1]
  Result (effect of adjuvant on DBNPA efficacy against biofilm): Negative impact

## N#CC(Br)(Br)C(N)=O [DBNPA, Dibromonitrilopropionamide]
[2]; all pools treated with DBNPA
  average mold and bacterial counts when PHMB was increased to recommended ranges: significantly reduced
[2]; all pools treated with DBNPA versus control pools
  improved performance over controls (average mold and bacterial counts): 2-4 logs
[3]; DBNPA 0.25 ppm Daily Additions
  Number of Days of Clarity below 1.0 NTU: 47 days
  Number of Days of Clarity below 1.0 NTU with no Peroxide in System: 0 days
[3]; DBNPA 0.5 ppm Daily Additions
  Number of Days of Clarity below 1.0 NTU: 54 days
  Number of Days of Clarity below 1.0 NTU with no Peroxide in System: 19 days
[3]; [9]
  Number of Days of Clarity below 1.0 NTU: <12 days
[3]; experiment 2, DBNPA added daily at 1 ppm in the absence of PHMB
  time to failure of the system (turbid water) versus PHMB alone or PHMB and DBNPA combinations: failure of the system and development of turbid water significantly sooner
[3]; experiment one, DBNPA weekly addition with PHMB
  performance at preventing turbid water and controlling bacteria and fungi, compared to PHMB alone: did not perform as well as the PHMB only treatment
[4]; DBNPA 0.25 ppm Daily Additions
  Bacterial Counts at Clarity of 1.0 NTU or above: 3.0 × 10^7 CFU/ml
[4]; DBNPA 0.5 ppm Daily Additions
  Bacterial Counts at Clarity of 1.0 NTU or above: 1.3 × 10^8 CFU/ml
[4]; [9]
  Bacterial Counts at Clarity of 1.0 NTU or above: 9.9 × 10^7 CFU/ml
[5]; [10]
  Bacteria % 0 counts: 83.6%
  Bacteria % Counts >999 cfu/ml: 4.5%
  Bacteria Avg Counts: 561 cfu/ml
[5]; [11]
  Bacteria % 0 counts: 83.3%
  Bacteria % Counts >999 cfu/ml: 2.4%
  Bacteria Avg Counts: 74.0 cfu/ml
[5]; [12]
  Bacteria % 0 counts: 88%
  Bacteria % Counts >999 cfu/ml: 1.5%
  Bacteria Avg Counts: 150 cfu/ml
[5]; [13]
  Bacteria % 0 counts: 92.8%
  Bacteria % Counts >999 cfu/ml: 0.0%
  Bacteria Avg Counts: 5.0 cfu/ml
[5]; [14]
  Bacteria % 0 counts: 89.6%
  Bacteria % Counts >999 cfu/ml: 0.0%
  Bacteria Avg Counts: 22.0 cfu/ml
[5]; [15]
  Bacteria % 0 counts: 100%
  Bacteria % Counts >999 cfu/ml: 0.0%
  Bacteria Avg Counts: 0.0 cfu/ml
[6]; versus oxidizers and surfactants
  reduction of viable bacterial and fungal populations (remedial performance): significantly better than the oxidizers and surfactants
[6]; remedial treatment of failed model system
  log reduction of viable bacteria in the water: improved performance over the non-oxidizing surfactants
[6]; remedial treatment of failed model system, established biofilm
  log reduction of viable bacteria in the sand: superior
[1]; Adjuvant DSPO 50 ppm
  Effective concentration of DBNPA in presence of PHMB and Adjuvant: 1.6-3.13 ppm
[1]; Adjuvant DTEA 50 ppm
  Effective concentration of DBNPA in presence of PHMB and Adjuvant: 3.13-6.25 ppm
[1]; Adjuvant Envirosweet 50 ppm
  Effective concentration of DBNPA in presence of PHMB and Adjuvant: 6.25-12.5 ppm
[1]; Adjuvant Geogard 111A 50 ppm
  Effective concentration of DBNPA in presence of PHMB and Adjuvant: 6.25-12.5 ppm
[1]; Adjuvant None
  Effective concentration of DBNPA in presence of PHMB and Adjuvant: 3.13-6.25 ppm
[1]; Adjuvant SADA 50 ppm
  Effective concentration of DBNPA in presence of PHMB and Adjuvant: 1.5-3.13 ppm
[1]; Adjuvant Span 60 50 ppm
  Effective concentration of DBNPA in presence of PHMB and Adjuvant: 3.13-6.25 ppm
[1]; Adjuvant Sulfamic acid 50 ppm
  Effective concentration of DBNPA in presence of PHMB and Adjuvant: 0.8-1.6 ppm
[1]; Adjuvant Surfonic L24-22 50 ppm
  Effective concentration of DBNPA in presence of PHMB and Adjuvant: 3.13-6.25 ppm
[1]; Adjuvant Triton BG10 50 ppm
  Effective concentration of DBNPA in presence of PHMB and Adjuvant: 3.13-6.25 ppm
[1]; Adjuvant Worm 50 ppm
  Effective concentration of DBNPA in presence of PHMB and Adjuvant: 1.6-3.13 ppm
[7]; [10]
  Mold % 0 counts: 59.7%
  Mold % Counts >999 cfu/ml: 3.0%
  Mold Avg Counts: 4267 cfu/ml
[7]; [11]
  Mold % 0 counts: 69.0%
  Mold % Counts >999 cfu/ml: 0.0%
  Mold Avg Counts: 9.0 cfu/ml
[7]; Pool 2 at low PHMB (1.0 ppm/day DBNPA)
  mold control compared to the other DBNPA pools: had difficulty controlling mold
[7]; [12]
  Mold % 0 counts: 76.1%
  Mold % Counts >999 cfu/ml: 0.0%
  Mold Avg Counts: 19.0 cfu/ml
[7]; [13]
  Mold % 0 counts: 66.7%
  Mold % Counts >999 cfu/ml: 0.0%
  Mold Avg Counts: 8.0 cfu/ml
[7]; [14]
  Mold % 0 counts: 74.6%
  Mold % Counts >999 cfu/ml: 1.5%
  Mold Avg Counts: 620 cfu/ml
[7]; [15]
  Mold % 0 counts: 83.3%
  Mold % Counts >999 cfu/ml: 0.0%
  Mold Avg Counts: 4.0 cfu/ml
[8]; DBNPA 0.25 ppm Daily Additions
  Fungal Counts at Clarity of 1.0 NTU or above: 3.0 × 10^2 CFU/ml
[8]; DBNPA 0.5 ppm Daily Additions
  Fungal Counts at Clarity of 1.0 NTU or above: 2.0 × 10^2 CFU/ml
[8]; [9]
  Fungal Counts at Clarity of 1.0 NTU or above: 1.2 × 10^3 CFU/ml

## Fatty alcohol polyglycol ether [Genapol C 050]
[1]
  Efficacy level (Effective Concentration with 6 ppm of PHMB): >100 ppm

## N-Alkyl (C12-16)-N,N-dimethyl-N-benzylammonium chloride [Uniquat QAC-50]
[1]
  Efficacy level (Effective Concentration with 6 ppm of PHMB): >100 ppm

## NS(=O)(=O)O [Sulfamic acid]
[1]
  Result (effect of adjuvant on DBNPA efficacy against biofilm): most significant effect on lowering the concentration of DBNPA

## Sorbitan monooleate [Alkamuls BR]
[1]
  Efficacy level (Effective Concentration with 6 ppm of PHMB): >100 ppm

## O=C1c2ccccc2C(=O)c2ccccc21 [Envirosweet, 9,10 anthraquinone]
[1]
  Result (effect of adjuvant on DBNPA efficacy against biofilm): Negative impact

## CCCCCCCCCCCCCC(=O)O [Myristian, Mystic acid]
[1]
  Efficacy level (Effective Concentration with 6 ppm of PHMB): >100 ppm
